Data on five compounds can be found in US20160311826A1, “SGC STIMULATORS” (IRONWOOD PHARMACEUTICALS, INC., priority 2013, published 2016).

Assay [1] deals with T1, soluble guanylate cyclase (sGC) (Homo sapiens, UniProt Q02108+Q02153).
T1 construct: endogenously expressing soluble guanylate cyclase (sGC); endogenous in cells; host or cells: HEK293
T1 sequence (Q02153 1-619): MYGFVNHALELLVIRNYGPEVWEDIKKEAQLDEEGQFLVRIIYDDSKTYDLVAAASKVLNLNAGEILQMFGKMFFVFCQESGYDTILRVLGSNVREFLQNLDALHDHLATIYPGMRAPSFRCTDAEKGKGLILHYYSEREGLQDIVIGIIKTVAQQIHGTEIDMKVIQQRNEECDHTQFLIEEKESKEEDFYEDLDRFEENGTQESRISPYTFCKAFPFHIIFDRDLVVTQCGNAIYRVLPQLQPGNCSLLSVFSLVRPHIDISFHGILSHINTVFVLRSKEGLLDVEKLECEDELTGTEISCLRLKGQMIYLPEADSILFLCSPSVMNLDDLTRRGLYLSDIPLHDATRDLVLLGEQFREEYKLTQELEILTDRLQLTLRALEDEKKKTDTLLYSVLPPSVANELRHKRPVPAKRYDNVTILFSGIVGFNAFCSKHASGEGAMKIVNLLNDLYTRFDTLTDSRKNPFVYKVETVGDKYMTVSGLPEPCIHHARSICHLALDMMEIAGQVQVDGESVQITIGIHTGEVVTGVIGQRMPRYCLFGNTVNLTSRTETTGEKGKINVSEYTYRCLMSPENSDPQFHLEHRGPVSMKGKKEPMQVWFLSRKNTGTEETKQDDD
T1 sequence (Q02108 1-690): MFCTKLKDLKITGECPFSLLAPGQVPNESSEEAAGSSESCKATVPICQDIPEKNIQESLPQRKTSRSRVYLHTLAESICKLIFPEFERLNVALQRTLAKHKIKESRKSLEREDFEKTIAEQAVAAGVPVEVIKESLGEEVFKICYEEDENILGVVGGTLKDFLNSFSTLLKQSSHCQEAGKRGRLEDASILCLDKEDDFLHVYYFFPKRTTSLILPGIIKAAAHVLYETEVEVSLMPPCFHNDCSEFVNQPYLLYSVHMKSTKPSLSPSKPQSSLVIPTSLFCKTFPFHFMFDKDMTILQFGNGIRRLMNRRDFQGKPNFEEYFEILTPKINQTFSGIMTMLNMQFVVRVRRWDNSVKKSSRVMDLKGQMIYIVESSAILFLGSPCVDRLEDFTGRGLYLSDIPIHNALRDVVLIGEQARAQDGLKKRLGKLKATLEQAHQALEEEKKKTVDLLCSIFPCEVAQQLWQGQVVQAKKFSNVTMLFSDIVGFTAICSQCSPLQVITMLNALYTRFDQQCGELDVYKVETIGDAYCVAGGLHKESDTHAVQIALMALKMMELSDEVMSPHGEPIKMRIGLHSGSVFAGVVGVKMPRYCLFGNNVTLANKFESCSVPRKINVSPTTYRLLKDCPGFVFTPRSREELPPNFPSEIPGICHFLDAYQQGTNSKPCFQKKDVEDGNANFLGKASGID
The assay can be described thus: sGC-HEK-cGMP assay with LC/MS detection. The settings on record: HEK293 cells, 10 μM DETA-NONOate; concentration eliciting 50% of high control response (30 μM Compound Y); read-out: sGC_HEK_LC MS EC50 Abs. The class given is cell-based. Here is the method: Human embryonic kidney cells (HEK293), endogenously expressing soluble guanylate cyclase (sGC), were used to evaluate the activity of test compounds. Compounds stimulating the sGC enzyme should cause an increase in the intracellular concentration of cGMP. HEK 293 cells were seeded in Dulbecco's Modification of Eagle's Medium supplemented with fetal bovine serum (10% final) and penicillin (100 U/mL)/streptomycin (100 ug/mL) in a […] at a density of 1.5×10^4 cells/well in a poly-D-lysine coated 384 well flat bottom plate. Cells were incubated overnight at 37° C. in a humidified chamber with 5% CO2. Medium was aspirated and cells were washed with 1× Hank's Buffered Saline Salt Solution […]. Cells were then incubated for 15 minutes at 37° C. with 50 μL of a 0.5 mM 3-isobutyl-1-methylxanthine (IBMX) solution. Test article and Diethylenetriamine NONOate (DETA-NONOate) solutions (x μM concentration for test article solution and 10 μM concentration for DETA-NONOate solution; wherein x is one of the following concentrations);
were then added to the assay mixture and the resulting mixture incubated at 37° C. for 20 minutes. After the 20 minute incubation, the assay mixture was aspirated and 10% acetic acid containing 150 ng/mL+3-cGMP (internal standard for LCMS) (50 μL) was added to the cells. The plate was incubated at 4° C. for 30 minutes in the acetic acid solution to stop the reaction and lyse the cells. The plates were then centrifuged at 1,000g for 3 minutes at 4° C. and the supernatant transferred to a clean reaction plate for LCMS analysis.
cGMP concentrations were determined from each sample using the LCMS conditions below (Table 2) and calculated standard curve. The standard curve was prepared in 10% acetic acid with 150 ng/mL+3cGMP (isotopically labelled cGMP with a weight 3 units higher than wild type) with the following final concentrations of cGMP in ng/mL: 1, 5, 10, 50, 100, 250, 500, 1000, 2000.
Data were normalized to a high control using the following equation: 100*(Sample−Low Control)/(High Control−Low Control), where the low control is the average of 16 samples treated with 1% DMSO, and the high control is the average of 16 samples treated with 30 μM of Compound Y depicted below. Data were fit using a 4-parameter fit (log(agonist) vs. response−variable slope) using GraphPad Prism Software v.5. n=2 for all compounds. The Absolute EC50 was interpolated from the curve fit and is defined as the concentration at which a given compound elicits 50% of the high control response. Compounds failing to elicit a minimum response of 50% are reported as >30 μM. For compounds run in duplicate or n higher than 2, the result herein given is the geometric mean of the several results obtained.
Code definitions for the whole cell HEK assay values, expressed as Absolute EC50 which is defined as the concentration at which a given compound elicits 50% of the high control response (Compound Y). Compounds failing to elicit a minimum response of 50% are reported as *.

Assay [2] concerns the target T2, human recombinant soluble guanylate cyclase enzyme α1β1 (h sGC) (Homo sapiens, UniProt Q02108+Q02153).
T2 construct: purchased Enzo Life Sciences ALX-201-177
T2 sequence (Q02108 1-690): T1 sequence (Q02108 1-690)
T2 sequence (Q02153 1-619): T1 sequence (Q02153 1-619)
Description: Purified human recombinant sGC α1β1 enzyme assay in the presence of DETA-NONOate (cGMP HTRF). The class given is biochemical. The settings on record: 30 uM DETA NONOate; concentration eliciting 50% of high control response (30 uM Compound Y); read-out: sGC_Enz_HTRF_a1b1 EC50 Abs. Here is the method: Purified human recombinant soluble guanylate cyclase enzyme α1β1 (h sGC) obtained from Enzo Life Sciences (P/N: ALX-201-177) was used to evaluate the activity of test compounds. The assay reactions contained 0.1 M Tris (pH 8.0), 0.5 mg/mL BSA, 2 mM DTT, 4 mM MgCl2, 30 uM DETA NONOate (Enzo Life Science P/N: ALX-430-014), and 12.5 ng/ml human soluble guanylate cyclase enzyme. […] Guanosine 5′-triphosphate (Sigma-Aldrich P/N: G8877) was added to a final concentration of 300 μM and enzyme reactions were incubated (100 μL, 384-well plate format) at 37° C. for 20 minutes. The controls contained 3% DMSO (low control), or 30 uM of Compound Y (high control). After the 20 minute incubation, the reaction was stopped with the addition of 100 μL of ice cold 20% acetic acid.
cGMP concentrations in all samples were determined using the cGMP HTRF (Cisbio P/N: 62GM2PEC) assay per manufacturer's instructions. A cGMP standard curve was fit using a 4-parameter fit (log(inhibitor) vs. response—variable slope) using GraphPad Prism Software v.6. Samples were diluted appropriately to ensure that values fell within the linear range of the standard curve. The EC50 was interpolated from the curve fit and is defined as the concentration at which the compound elicits 50% of the maximal response of the 30 uM of Compound Y, the high control compound.

The test system of assay [3] is Guinea pig tracheal smooth muscle (GPTSM) contraction. The assay can be described thus: Electrical field stimulated guinea pig tracheal smooth muscle contraction (ex vivo). The settings on record: sub-maximal EFS, cumulative dose response curve, three animals pooled; read-out: IC50, inhibition of EFS-induced tracheal smooth muscle contraction. As for the experimental part: Electrical Field Stimulated Guinea Pig Tracheal Smooth Muscle In Vitro (ex vivo) model for the Assessment of Bronchodilation.
It is possible to assess the bronchodilating effects of sGC stimulators by using the system described below. […]
On each experimental day, a guinea pig is killed by exposure to a rising concentration of CO2 and the trachea removed. […] Tissues are washed with Kreb's buffer and stimulated using the previously determined sub-maximal voltage for 1 hour to establish a stable baseline contraction prior to assessment of compound activity.
A cumulative dose response curve (DRC) to each test substance is then performed and changes in smooth muscle contraction measured. The effect of each test substance in each experiment is expressed as a percentage inhibition of the baseline contraction, normalized to the relevant vehicle controls. […] The data from all three experiments are pooled, the DRC plotted, and the test substance potency and efficacy determined.

In assay [4] the test system is sickle cell disease patients with VOE. The settings on record: cited from earlier work.

A word on the EC50: it is the concentration needed to bring the measured effect to its halfway point. For orientation: IC50 means the concentration that inhibits the measured activity by half.

Consider `CCOC(=O)C1(C)C(=O)Nc2nc(-c3cc(OC)n(Cc4ccccc4F)n3)nc(N)c21` (stereo not shown) [Compound I-1, ethyl 4-amino-2-(1-(2-fluorobenzyl)-5-methoxy-1H-pyrazol-3-yl)-5-methyl-6-oxo-6,7-dihydro-5H-pyrrolo[2,3-d]pyrimidine-5-carboxylate], for which the EC50 is less than 0.1 µM in assay [1] and less than 2 µM in assay [2].

As to `COc1nc(-c2ncc(F)c(O)n2)nn1Cc1ccccc1F` [Compound I-3], the EC50 in assay [1] and in assay [2] was more than 30 µM in each case.

As to `CC(C)Oc1cc(-c2nc(N)c3c(n2)NC(=O)C3(C)C(N)=O)nn1Cc1ccccc1F` (stereo not shown) [Compound I-39, 4-amino-2-(5-isopropoxy-1-(2-fluorobenzyl)-1H-pyrazol-3-yl)-5-methyl-6-oxo-6,7-dihydro-5H-pyrrolo[2,3-d]pyrimidine-5-carboxamide], the EC50 in assay [1] was more than 30 µM; in assay [2] it was more than 5 µM.

Turning to `CC(C)[N+]1(C)[C@@H]2CC[C@H]1C[C@@H](OC(=O)C(CO)c1ccccc1)C2` (stereo partly shown) [Ipratropium bromide], in assay [3], the IC50 was 0.00086 µM.

As for nitric oxide [inhaled NO], the “use of parenteral morphine” value in assay [4] (randomized placebo controlled trial, acute VOE, adult patients, compared with placebos) is recorded as “trend towards decreased use of parenteral morphine”. In assay [4] (randomized placebo controlled trial, acute VOE, adult patients), the pain scores entry is given as “significantly reduced pain scores”. Moreover, in assay [4] (sickle cell disease children presenting with VOE), the “pain scores, analgesic requirements, hospital stay” value was “trends toward lower pain scores, decreased analgesic requirements and a shorter hospital stay”.
